Columns and labels:
Experiment in all cases: relative viability (nuclei count vs DMSO), 5 days (fraction); higher = more cells survive
NCI-H1755 = conditions: first compound 500 µM
Method in brief: (§1)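 The day after seeding in 1536-well plates, lung cancer cell lines were treated by pin tool with a single drug, or with a fixed anchor-drug dose together with five library-drug doses (not always all listed) in √10 steps. After 5 days, a combined fix-and-stain solution (final 0.05% Triton X-100, 1% formaldehyde, 1 ug/ml Hoechst) was added. Nuclei counted on 4× images gave relative viability as treated counts over vehicle counts, reported as the median of duplicate plates.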

NCI-H1993 = tested on: NCI-H1993
Method in brief: as §1

NCI-H2126 = tested on: NCI-H2126
Method in brief: as §1

SK-LU-1 = tested on: SK-LU-1
Method in brief: as §1

PC-14 = tested on: PC-14
Method in brief: as §1

EMC-BAC-2 = tested on: EMC-BAC-2
Method in brief: as §1

LCLC-97TM1 = tested on: LCLC-97TM1
Method in brief: as §1

NCI-H1975 = tested on: NCI-H1975
Method in brief: as §1

NCI-H2009 = tested on: NCI-H2009
Method in brief: as §1

PC-3 [JPC-3] = tested on: PC-3 [JPC-3]
Method in brief: as §1

NCI-H1793 = tested on: NCI-H1793
Method in brief: as §1

NCI-H2347 = tested on: NCI-H2347
Method in brief: as §1

`O=C(O)CCCCC(CCSCc1ccccc1)SCc1ccccc1` (stereo not given) [CPI-613] + CS(=O)(=O)CCNCc1ccc(-c2ccc3ncnc(Nc4ccc(OCc5cccc(F)c5)c(Cl)c4)c3c2)o1 [Lapatinib] (partner 2 µM) was tested, and the relative viability (NCI-H1755) was 0.232, the relative viability (NCI-H1993; first compound 5 µM) was 0.777 and the relative viability (NCI-H1993; first compound 15.81 µM) was 0.706. It also gave a relative viability (NCI-H1993; first compound 50 µM) of 0.774, a relative viability (NCI-H1993; first compound 158.11 µM) of 0.567 and a relative viability (NCI-H1993; first compound 500 µM) of 0.41. The relative viability (NCI-H2126; first compound 5 µM) was 0.723, the relative viability (NCI-H2126; first compound 15.81 µM) was 0.754 and the relative viability (NCI-H2126; first compound 50 µM) was 0.758. For the same compound, the relative viability (NCI-H2126; first compound 158.11 µM) was 0.612, the relative viability (NCI-H2126; first compound 500 µM) was 0.738 and the relative viability (SK-LU-1; first compound 5 µM) was 0.818. For the same compound, the relative viability (SK-LU-1; first compound 15.81 µM) was 0.692, the relative viability (SK-LU-1; first compound 50 µM) was 0.752 and the relative viability (SK-LU-1; first compound 158.11 µM) was 0.587. The relative viability (SK-LU-1; first compound 500 µM) was 0.379, the relative viability (PC-14; first compound 5 µM) was 0.347 and the relative viability (PC-14; first compound 15.81 µM) was 0.307. It also gave a relative viability (PC-14; first compound 50 µM) of 0.303, a relative viability (PC-14; first compound 158.11 µM) of 0.251 and a relative viability (PC-14; first compound 500 µM) of 0.259. For the same compound, the relative viability (EMC-BAC-2; first compound 5 µM) was 0.827, the relative viability (EMC-BAC-2; first compound 15.81 µM) was 0.86 and the relative viability (EMC-BAC-2; first compound 50 µM) was 0.847. The relative viability (EMC-BAC-2; first compound 158.11 µM) was 0.954, the relative viability (EMC-BAC-2; first compound 500 µM) was 0.0887 and the relative viability (LCLC-97TM1; first compound 5 µM) was 1.19. The relative viability (LCLC-97TM1; first compound 15.81 µM) was 0.906, the relative viability (LCLC-97TM1; first compound 50 µM) was 1.07 and the relative viability (LCLC-97TM1; first compound 158.11 µM) was 1.01. It also gave a relative viability (LCLC-97TM1; first compound 500 µM) of 0.0553, a relative viability (NCI-H1975; first compound 5 µM) of 0.89 and a relative viability (NCI-H1975; first compound 15.81 µM) of 0.832. It also gave a relative viability (NCI-H1975; first compound 50 µM) of 0.821, a relative viability (NCI-H1975; first compound 158.11 µM) of 0.824 and a relative viability (NCI-H1975; first compound 500 µM) of 0.0608. For the same compound, the relative viability (NCI-H2009; first compound 5 µM) was 0.996, the relative viability (NCI-H2009; first compound 15.81 µM) was 0.897 and the relative viability (NCI-H2009; first compound 50 µM) was 0.771. The relative viability (NCI-H2009; first compound 158.11 µM) was 0.18, the relative viability (NCI-H2009; first compound 500 µM) was 0.0119 and the relative viability (PC-3 [JPC-3]; first compound 5 µM) was 0.493. The relative viability (PC-3 [JPC-3]; first compound 15.81 µM) was 0.439, the relative viability (PC-3 [JPC-3]; first compound 50 µM) was 0.425 and the relative viability (PC-3 [JPC-3]; first compound 158.11 µM) was 0.415. The relative viability (PC-3 [JPC-3]; first compound 500 µM) was 0.407, the relative viability (NCI-H1793; first compound 5 µM) was 0.683 and the relative viability (NCI-H1793; first compound 50 µM) was 0.732. The relative viability (NCI-H1793; first compound 158.11 µM) was 0.306, the relative viability (NCI-H1793; first compound 500 µM) was 0.0696 and the relative viability (NCI-H2347; first compound 5 µM) was 0.986. It also gave a relative viability (NCI-H2347; first compound 15.81 µM) of 0.846, a relative viability (NCI-H2347; first compound 50 µM) of 0.762 and a relative viability (NCI-H2347; first compound 158.11 µM) of 0.563. It also gave a relative viability (NCI-H2347; first compound 500 µM) of 0.766.

Reference: the supplement of paper PMC10307832
